This note sets out measurements from patent US8232273B2, “Heterocyclic compounds and methods of use” (Genentech, Inc., priority 2008, dated 2012).

Assay [1] deals with T1, Bcl-xL (GST-Bcl-xL) (Homo sapiens, UniProt Q07817). The experiment in a line: TR-FRET binding assay, competition with F-Bak for the Bcl-xL binding site. As to conditions: values listed in the order of Table 1, read-out: TR-FRET assay results (Ki), Bcl-xL. In general terms: Time-resolved FRET reads energy transfer from a long-lived donor to a nearby acceptor.
T1 sequence (Q07817 whole entry, species assumed): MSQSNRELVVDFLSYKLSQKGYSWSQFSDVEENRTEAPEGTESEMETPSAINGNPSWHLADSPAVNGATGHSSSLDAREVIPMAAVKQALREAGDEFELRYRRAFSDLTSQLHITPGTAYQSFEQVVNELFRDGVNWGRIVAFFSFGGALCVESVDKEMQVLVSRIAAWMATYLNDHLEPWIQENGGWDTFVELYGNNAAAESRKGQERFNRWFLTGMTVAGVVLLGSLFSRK
Assay [2] addresses T1, Bcl-xL (GST-Bcl-xL). Briefly: AlphaScreen Bcl-xL binding assay, competition with biotinylated Bim peptide. More on the design: made in house. As to conditions: values listed in the order of Table 1; read-out: Alphascreen results (IC50) against the Bcl-xL protein. In outline:
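Acceptor beads with GST-Bcl-xL were combined with donor beads carrying biotinylated Bim peptide after each bead mix was preincubated 30 min at room temperature. Compounds in DMSO, 2-fold serially diluted, were incubated 30 min at room temperature before donor addition, with duplicate plates. Percent inhibition was taken against no-protein and DMSO controls, and IC50 was calculated.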
(In general: Alpha assays give light when donor and acceptor beads are brought close together.)

In the case of `O=C(Nc1nc2ccccc2s1)c1cccc2c1CN(c1nc(C(=O)O)c(CCCOc3ccc(C4(c5ccccc5)CCCC4)cc3)s1)CC2` [Example 24, 2-(8-(benzo[d]thiazol-2-ylcarbamoyl)-3,4-dihydroisoquinolin-2(1H)-yl)-5-(3-(4-(1-phenylcyclopentyl)phenoxy)propyl)thiazole-4-carboxylic acid], at Bcl-xL (GST-Bcl-xL) [1], the Ki amounted to 7 nM. The IC50 on Bcl-xL (GST-Bcl-xL) [2] was determined as 27 nM.
As to `N#CC1Cc2cc(OCCCc3sc(N4CCc5cccc(C(=O)Nc6nc7ccccc7s6)c5C4)nc3C(=O)O)ccc21` (centres unmarked) [Example 25, 2-(8-(benzo[d]thiazol-2-ylcarbamoyl)-3,4-dihydroisoquinolin-2(1H)-yl)-5-(3-(1-cyano-1,2-dihydrocyclobutabenzen-4-yloxy)propyl)thiazole-4-carboxylic acid], at Bcl-xL (GST-Bcl-xL) [1], the Ki was 0.3 nM. Besides, the IC50 at Bcl-xL (GST-Bcl-xL) [2] was determined as 0.9 nM.
In the same order, the values of `N#CC1(c2ccc(OCCCc3sc(N4CCc5cccc(C(=O)Nc6nc7ccccc7s6)c5C4)nc3C(=O)O)cc2)CCC1` [Example 26, 2-(8-(benzo[d]thiazol-2-ylcarbamoyl)-3,4-dihydroisoquinolin-2(1H)-yl)-5-(3-(4-(1-cyanocyclobutyl)phenoxy)propyl)thiazole-4-carboxylic acid] are 3 nM and 5 nM.
Regarding `O=C(Nc1nc2ccccc2s1)c1cccc2c1CN(c1nc(C(=O)O)c(CCCOc3ccc4c5c3CCCN5CCC4)s1)CC2` [Example 27, 2-(8-(benzo[d]thiazol-2-ylcarbamoyl)-3,4-dihydroisoquinolin-2(1H)-yl)-5-(3-(1,2,3,5,6,7-hexahydropyrido[3,2,1-ij]quinolin-8-yloxy)propyl)thiazole-4-carboxylic acid], the inhibition constant (Ki) at Bcl-xL (GST-Bcl-xL) [1] is 1 nM. At Bcl-xL (GST-Bcl-xL) [2], the IC50 turned out to be 7 nM.
For `CCCN(CCc1ccc(OCCCc2sc(N3CCc4cccc(C(=O)Nc5nc6ccccc6s5)c4C3)nc2C(=O)O)cc1)CC1CCCc2c1ccc(OC)c2OC` (centres unmarked) [Example 28, 2-(8-(benzo[d]thiazol-2-ylcarbamoyl)-3,4-dihydroisoquinolin-2(1H)-yl)-5-(3-(4-(2-(((5,6-dimethoxy-1,2,3,4-tetrahydronaphthalen-1-yl)methyl)(propyl)amino)ethyl)phenoxy)propyl)thiazole-4-carboxylic acid], at Bcl-xL (GST-Bcl-xL) [1], the Ki was determined as 1 nM. For the same compound, the IC50 on Bcl-xL (GST-Bcl-xL) [2] came to 8 nM.
Take `Cc1cc(N2CCN(c3nc4ccccc4s3)CC2)ccc1OCCCc1sc(N2CCc3cccc(C(=O)Nc4nc5ccccc5s4)c3C2)nc1C(=O)O` [Example 29, 5-(3-(4-(4-(benzo[d]thiazol-2-yl)piperazin-1-yl)-2-methylphenoxy)propyl)-2-(8-(benzo[d]thiazol-2-ylcarbamoyl)-3,4-dihydroisoquinolin-2(1H)-yl)thiazole-4-carboxylic acid]: the Ki on Bcl-xL (GST-Bcl-xL) [1] worked out at 23 nM. Moreover, the IC50 on Bcl-xL (GST-Bcl-xL) [2] came out at 117 nM.
The corresponding values for `N#C/C=C/c1cccc(OCCCc2sc(N3CCc4cccc(C(=O)Nc5nc6ccccc6s5)c4C3)nc2C(=O)O)c1` [Example 30, (E)-2-(8-(benzo[d]thiazol-2-ylcarbamoyl)-3,4-dihydroisoquinolin-2(1H)-yl)-5-(3-(3-(2-cyanovinyl)phenoxy)propyl)thiazole-4-carboxylic acid] are 0.4 nM and 0.3 nM.
`N#Cc1c(-c2ccc(OCCCc3sc(N4CCc5cccc(C(=O)Nc6nc7ccccc7s6)c5C4)nc3C(=O)O)cc2)n[nH]c1N` [Example 31, 5-(3-(4-(5-amino-4-cyano-1H-pyrazol-3-yl)phenoxy)propyl)-2-(8-(benzo[d]thiazol-2-ylcarbamoyl)-3,4-dihydroisoquinolin-2(1H)-yl)thiazole-4-carboxylic acid]: the Ki on Bcl-xL (GST-Bcl-xL) [1] amounted to 0.1 nM. Further, the IC50 at Bcl-xL (GST-Bcl-xL) [2] was 0.3 nM.
The corresponding values for `N#Cc1c(-c2ccc(O)cc2)n[nH]c1NCCCc1sc(N2CCc3cccc(C(=O)Nc4nc5ccccc5s4)c3C2)nc1C(=O)O` [Example 32, 2-(8-(benzo[d]thiazol-2-ylcarbamoyl)-3,4-dihydroisoquinolin-2(1H)-yl)-5-(3-(4-cyano-3-(4-hydroxyphenyl)-1H-pyrazol-5-ylamino)propyl)thiazole-4-carboxylic acid] are 17 nM and 50 nM.
The corresponding values for `O=C(Nc1nc2ccccc2s1)c1cccc2c1CN(c1nc(C(=O)O)c(-c3ccc(CO)cc3)s1)CC2` [Example 34, 2-(8-(benzo[d]thiazol-2-ylcarbamoyl)-3,4-dihydroisoquinolin-2(1H)-yl)-5-(4-(hydroxymethyl)phenyl)thiazole-4-carboxylic acid] are 4 nM and 5 nM.
In the same order, the values of `N#Cc1c(-c2ccc(OCc3ccc(-c4sc(N5CCc6cccc(C(=O)Nc7nc8ccccc8s7)c6C5)nc4C(=O)O)cc3)cc2)n[nH]c1N` [Example 35, 5-(4-((4-(5-amino-4-cyano-1H-pyrazol-3-yl)phenoxy)methyl)phenyl)-2-(8-(benzo[d]thiazol-2-ylcarbamoyl)-3,4-dihydroisoquinolin-2(1H)-yl)thiazole-4-carboxylic acid] are 4 nM and 10 nM.
For `O=C(Nc1nc2ccccc2s1)c1cccc2c1CN(c1nc(C(=O)O)c(CCCO)s1)CC2` [Example 38, 2-(8-(Benzo[d]thiazol-2-ylcarbamoyl)-3,4-dihydroisoquinolin-2(1H)-yl)-5-(3-hydroxypropyl)thiazole-4-carboxylic acid], the inhibition constant (Ki) on Bcl-xL (GST-Bcl-xL) [1] worked out at 5 nM. Further, the IC50 at Bcl-xL (GST-Bcl-xL) [2] was found to be 5 nM.
On to `O=C(Nc1nc2ccccc2s1)c1cccc2c1CN(c1nc(C(=O)O)c(CCCOc3ccc(-c4cccnc4)cc3)s1)CC2` [Example 41, 2-(8-(Benzo[d]thiazol-2-ylcarbamoyl)-3,4-dihydroisoquinolin-2(1H)-yl)-5-(3-(4-(pyridin-3-yl)phenoxy)propyl)thiazole-4-carboxylic acid], for which the Ki on Bcl-xL (GST-Bcl-xL) [1] stood at 0.1 nM. The IC50 on Bcl-xL (GST-Bcl-xL) [2] was determined as 0.7 nM.
As to `N#Cc1c(-c2ccc(OCc3sc(N4CCc5cccc(C(=O)Nc6nc7ccccc7s6)c5C4)nc3C(=O)O)cc2)n[nH]c1N` [Example 45, 5-((4-(5-amino-4-cyano-1H-pyrazol-3-yl)phenoxy)methyl)-2-(8-(benzo[d]thiazol-2-ylcarbamoyl)-3,4-dihydroisoquinolin-2(1H)-yl)thiazole-4-carboxylic acid], at Bcl-xL (GST-Bcl-xL) [1], the Ki was 1 nM. Besides, on Bcl-xL (GST-Bcl-xL) [2], the IC50 came out at 4 nM.
Turning to `O=C(Nc1nc2ccccc2s1)c1cccc2c1CN(c1nc(C(=O)O)c(CCCOc3ccc(-n4cccn4)cc3)s1)CC2` [Example 48, 5-(3-(4-(1H-pyrazol-1-yl)phenoxy)propyl)-2-(8-(benzo[d]thiazol-2-ylcarbamoyl)-3,4-dihydroisoquinolin-2(1H)-yl)thiazole-4-carboxylic acid], on Bcl-xL (GST-Bcl-xL) [1], the Ki came out at 0.05 nM. In addition, the IC50 at Bcl-xL (GST-Bcl-xL) [2] amounted to 0.3 nM.
The corresponding values for `O=C(Nc1nc2ccccc2s1)c1cccc2c1CN(c1nc(C(=O)O)c(CCOc3ccc(-n4ncc5cncnc54)cc3)s1)CC2` [Example 49, 5-(2-(4-(1H-pyrazolo[3,4-d]pyrimidin-1-yl)phenoxy)ethyl)-2-(8-(benzo[d]thiazol-2-ylcarbamoyl)-3,4-dihydroisoquinolin-2(1H)-yl)thiazole-4-carboxylic acid] are 12 nM and 80 nM.
The corresponding values for `O=C(Nc1nc2ccccc2s1)c1cccc2c1CN(c1nc(C(=O)O)c(CCOc3cccc(-n4ncc5cncnc54)c3)s1)CC2` [Example 50, 5-(2-(3-(1H-pyrazolo[3,4-d]pyrimidin-1-yl)phenoxy)ethyl)-2-(8-(benzo[d]thiazol-2-ylcarbamoyl)-3,4-dihydroisoquinolin-2(1H)-yl)thiazole-4-carboxylic acid] are 2 nM and 10 nM.
In the same order, the values of `N#Cc1cscc1-c1ccc(OCCCc2sc(N3CCc4cccc(C(=O)Nc5nc6ccccc6s5)c4C3)nc2C(=O)O)cc1` [Example 51, 2-[8-(Benzothiazol-2-ylcarbamoyl)-3,4-dihydro-1H-isoquinolin-2-yl]-5-{3-[4-(4-cyano-thiophen-3-yl)-phenoxy]-propyl}-thiazole-4-carboxylic acid] are 0.3 nM and 6 nM.
For `O=C(Nc1nc2ccccc2s1)c1cccc2c1CN(c1nc(C(=O)O)c(CN3CCN(c4ccccc4)CC3)s1)CC2` [Example 62, 2-(8-(benzo[d]thiazol-2-ylcarbamoyl)-3,4-dihydroisoquinolin-2(1H)-yl)-5-((4-phenylpiperazin-1-yl)methyl)thiazole-4-carboxylic acid], the Ki at Bcl-xL (GST-Bcl-xL) [1] amounted to 130 nM. Besides, the IC50 on Bcl-xL (GST-Bcl-xL) [2] was 1600 nM.
In the same order, the values of `O=C(Nc1nc2ccccc2s1)c1cccc2c1CN(c1nc(C(=O)O)c(CN3CCC(c4ccccc4)CC3)s1)CC2` [Example 63, 2-(8-(benzo[d]thiazol-2-ylcarbamoyl)-3,4-dihydroisoquinolin-2(1H)-yl)-5-((4-phenylpiperidin-1-yl)methyl)thiazole-4-carboxylic acid] are 248 nM and 574 nM.
In the same order, the values of `O=C(Nc1nc2ccccc2s1)c1cccc2c1CN(c1nc(C(=O)O)c(CN3CCC3c3ccccc3)s1)CC2` (centres unmarked) [Example 71, 2-[8-(Benzothiazol-2-ylcarbamoyl)-3,4-dihydro-1H-isoquinolin-2-yl]-5-(2-phenyl-azetidin-1-ylmethyl)-thiazole-4-carboxylic acid] are 174 nM and 570 nM.
The corresponding values for `Nc1nc2ccccc2n1-c1ccc(OCCCc2sc(N3CCc4cccc(C(=O)Nc5nc6ccccc6s5)c4C3)nc2C(=O)O)cc1` [Example 77, 5-(3-(4-(2-amino-1H-benzo[d]imidazol-1-yl)phenoxy)propyl)-2-(8-(benzo[d]thiazol-2-ylcarbamoyl)-3,4-dihydroisoquinolin-2(1H)-yl)thiazole-4-carboxylic acid] are 7 nM and 34 nM.

Usually Ki stands for a measure of affinity in units of concentration, obtained from inhibition or displacement. The term IC50 denotes the point on the concentration scale where inhibition reaches its midpoint.
